From US6610685B2, “Fused indole derivatives” (Hoffmann-La Roche Inc., priority 2000, dated 2003)
Where two headings read alike, the source gives them in different places.

Key:
human 5-HT2B receptors = molecular target: T1, human 5-HT2B receptors (Homo sapiens, UniProt P41595); test: Binding to the 5-HT2B receptor, Method (b), [3H]-5-HT
T1 construct: expressed in transfected cells; host or cells: CHO cell line
Experimental: (§1) The binding of compounds of formula (I) to serotonin receptors was determined in vitro by standard methods. The preparations were investigated in accordance with the assays given hereinafter.
Method (b): For the binding to the 5-HT2B receptor the 5-HT2B receptors were radiolabeled with [^3H]-5-HT. The affinity of the compounds for human 5-HT2B receptors in a CHO cell line was determined according to the procedure of K. Schmuck, C. Ullmer, P. Engels and H. Lubbert, FEBS Lett., 1994, 342, 85-90.
(§2) The Ki values are calculated according to the method of Cheng, Yung-Chi, and Prusoff, W. H. Biochem. Pharmacol. 1973, 22(23) 3099-108.

[1] = Pharmacodynamic study: food intake up to 16 hours after compound administration; assay type: in vivo, rats; conditions: 30 mg/kg p.o.
Experimental: The in vivo activity of compounds of formula (I) was assayed for ability to regulate feeding behaviour during a time period up to 16 hours after compound administration.
The test compound was assessed following acute administration. Each study utilised a between-subjects design (typically n=8) and compared the effects of a single dose of the test agent to those of vehicle.
Example 1 was administered at a dose of 30 mg/kg p.o. in a distilled water vehicle 2, 4, 8, or 16 hours prior to food presentation. At the time of food presentation (standard laboratory chow) all animals had been subjected to a 23-hour food deprivation period. Water was freely available throughout the study. The amount of food consumed over 1 hour was determined. Food intake data were subjected to two-way analysis of variance (ANOVA) with drug treatment as a between-subjects factor and injection-test-interval as a between subjects factor. Newman-Keuls tests were performed to assess whether differences between the vehicle mean and the drug-treated mean at each level of injection-test-interval were significant. All statistical analyses were performed using Statistica Software, Version 5.0 (Statsoft Inc.) and Microsoft Excel 7.0 (Microsoft Corp.).

5-HT2C receptor [2] = molecular target: T2, 5-HT2C receptor (Homo sapiens, UniProt P28335); test: Functional activity, FLIPR calcium assay, CHO cells expressing human 5-HT2C; assay type: cell-based; parameters: expressed in transfected cells; host or cells: CHO cells; conditions: for h5-HT2c Relative Efficacy: relative to response of 10 μM 5-HT (100%)
T2 sequence (P28335 33-458): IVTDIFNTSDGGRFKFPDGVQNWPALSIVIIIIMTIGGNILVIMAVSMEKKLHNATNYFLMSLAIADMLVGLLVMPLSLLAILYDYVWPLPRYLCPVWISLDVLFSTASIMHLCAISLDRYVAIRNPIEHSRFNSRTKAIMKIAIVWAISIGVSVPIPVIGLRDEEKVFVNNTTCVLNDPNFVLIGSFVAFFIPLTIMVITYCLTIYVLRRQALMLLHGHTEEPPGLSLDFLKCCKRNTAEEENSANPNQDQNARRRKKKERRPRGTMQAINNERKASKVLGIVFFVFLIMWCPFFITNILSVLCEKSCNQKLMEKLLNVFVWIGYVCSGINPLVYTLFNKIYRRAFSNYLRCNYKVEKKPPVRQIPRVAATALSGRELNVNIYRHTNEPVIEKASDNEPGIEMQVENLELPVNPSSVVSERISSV
Experimental: (§3) The functional activity of compounds of formula (I) was assayed using a Fluorimetric Imaging Plate reader (FLIPR). CHO cells expressing the human 5-HT2C or human 5-HT2A receptors were counted and plated into standard 96 well microtitre plates on the day before testing to give a confluent monolayer. The cells were then dye loaded with the calcium sensitive dye, Fluo-3-AM. Unincorporated dye was removed using an automated cell washer to leave a total volume of 100 μL/well of assay buffer (Hanks balanced salt solution containing 20 mM Hepes and 2.5 mM probenecid). The drug (dissolved in 50 μL of the assay buffer) was added at a rate of 70 μL/sec to each well of the FLIPR 96 well plate during fluorescence measurements. The measurements were taken at 1 sec intervals and the maximum fluorescent signal was measured (approx 10-15 secs after drug addition) and compared with the response produced by 10 μM 5-HT (defined as 100%) to which it was expressed as a percentage response (relative efficacy). Dose response curves were constructed using Graphpad Prism (Graph Software Inc.).

5-HT2A receptor [3] = molecular target: T3, 5-HT2A receptor (Homo sapiens, UniProt P28223); test: Functional activity, FLIPR calcium assay, CHO cells expressing human 5-HT2A; assay type: cell-based; parameters: expressed in transfected cells; host or cells: CHO cells
T3 sequence (P28223 whole entry): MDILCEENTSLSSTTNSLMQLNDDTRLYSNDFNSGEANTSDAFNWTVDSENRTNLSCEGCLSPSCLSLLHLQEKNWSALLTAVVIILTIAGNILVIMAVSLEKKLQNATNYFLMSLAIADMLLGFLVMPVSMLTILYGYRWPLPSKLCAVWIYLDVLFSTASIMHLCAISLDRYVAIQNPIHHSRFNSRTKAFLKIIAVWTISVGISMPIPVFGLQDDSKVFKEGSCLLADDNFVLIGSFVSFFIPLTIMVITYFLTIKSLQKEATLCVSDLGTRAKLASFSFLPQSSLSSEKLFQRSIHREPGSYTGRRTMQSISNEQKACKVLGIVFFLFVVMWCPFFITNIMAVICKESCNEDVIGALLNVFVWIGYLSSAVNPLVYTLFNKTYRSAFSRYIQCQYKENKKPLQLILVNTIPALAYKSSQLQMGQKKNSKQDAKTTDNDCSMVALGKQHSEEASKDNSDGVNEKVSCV
Experimental: as §3

5-HT2C receptor [4] = molecular target: T2, 5-HT2C receptor; test: Binding to the 5-HT2C receptor, Method (a), [3H]-5-HT; parameters: expressed in transfected cells; host or cells: CHO cell line
Experimental: as §1
Method (a): For the binding to the 5-HT2C receptor the 5-HT2C receptors were radiolabeled with [^3H]-5-HT. The affinity of the compounds for 5-HT2C receptors in a CHO cell line was determined according to the procedure of D. Hoyer, G. Engel and H. O. Kalkman, European J. Pharmacol., 1985, 118, 13-23.
as §2

5-HT2A receptor [5] = molecular target: T3, 5-HT2A receptor; test: Binding to the 5-HT2A receptor, Method (c), [125I]-DOI; parameters: expressed in transfected cells; host or cells: CHO cell line
Experimental: as §1
Method (c): For the binding to the 5-HT2A receptor the 5-HT2A receptors were radiolabeled with [^125I]-DOI. The affinity of the compounds for 5-HT2A receptors in a CHO cell line was determined according to the procedure of D. J. McKenna and S. J. Peroutka, J. Neurosci., 1989, 9, 3482-90.
as §2

[6] = literature; cited from earlier work
[7] = literature, cited from earlier work

T1 sequence (P41595 whole entry): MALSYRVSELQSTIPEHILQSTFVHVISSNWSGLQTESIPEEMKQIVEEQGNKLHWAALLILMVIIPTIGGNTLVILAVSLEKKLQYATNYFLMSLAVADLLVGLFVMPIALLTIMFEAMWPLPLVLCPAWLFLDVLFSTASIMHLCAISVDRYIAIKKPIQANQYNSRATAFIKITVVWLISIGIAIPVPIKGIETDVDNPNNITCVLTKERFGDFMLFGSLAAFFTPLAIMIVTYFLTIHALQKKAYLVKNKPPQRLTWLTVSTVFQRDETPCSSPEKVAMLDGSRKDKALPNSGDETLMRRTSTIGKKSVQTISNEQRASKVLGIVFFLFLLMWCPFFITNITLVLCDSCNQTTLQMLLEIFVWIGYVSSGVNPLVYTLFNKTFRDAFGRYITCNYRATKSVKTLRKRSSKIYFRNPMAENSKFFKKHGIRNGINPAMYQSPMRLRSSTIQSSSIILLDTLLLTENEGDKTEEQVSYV

SMILES: CCOc1ccc2c(c1)c(C[C@H](C)N)c1n2CCC1 [Example 1, (S)-2-(6-ethoxy-2,3-dihydro-1H-3a-aza-cyclopenta[a]inden-8-yl)-1-methyl-ethylamine]
- Ki (human 5-HT2B receptors): 830 nM
- duration of action in reducing rat food intake [1]: at least 16 hours
- h5-HT2c Relative Efficacy (5-HT2C receptor [2]): 87%
- h5-HT2A Relative Efficacy (5-HT2A receptor [3]; relative to response of 10 μM 5-HT (100%)): 33%
- Ki (5-HT2C receptor [4]; Method (a), [3H]-5-HT, CHO cell line, Ki by Cheng-Prusoff, read-out: Ki (2C)): 11 nM
- Ki (5-HT2A receptor [5]): 410 nM

SMILES: CCOCCCOc1ccc2c(c1)c(C[C@H](C)N)c1n2CCC1.Cl
- melting point: 132 °C

SMILES: C[C@H](N)Cc1c2n(c3ccc(OC4CC4)cc13)CCC2 [Example 3, (S)-2-(6-cyclopropoxy-2,3-dihydro-1H-3a-aza-cyclopenta[a]inden-8-yl)-1-methyl-ethylamine]
- EC50 (5-HT2C receptor [2]; FLIPR, CHO cells, read-out: h5-HT2c EC50): 3 nM
- h5-HT2c Relative Efficacy (5-HT2C receptor [2]): 84%
- EC50 (5-HT2A receptor [3]; FLIPR, CHO cells, read-out: h5-HT2A EC50): > 1000 nM

SMILES: CCOCCOc1ccc2c(c1)c(C[C@H](C)N)c1n2CCC1.Cl
- melting point: 170 to 172 °C

SMILES: COCCOc1ccc2c(c1)c(C[C@H](C)N)c1n2CCC1 [Example 2, (S)-2-[6-(2-methoxy-ethoxy)-2,3-dihydro-1H-3a-aza-cyclopenta[a]inden-8-yl]-1-methyl-ethyl amine]
- Ki (human 5-HT2B receptors; Method (b), [3H]-5-HT, human 5-HT2B in CHO cell line, Ki by Cheng-Prusoff, read-out: Ki (2B)): 480 nM
- Ki (5-HT2C receptor [4]): 19 nM
- Ki (5-HT2A receptor [5]; Method (c), [125I]-DOI, CHO cell line, Ki by Cheng-Prusoff, read-out: Ki (2A)): 520 nM

SMILES: Clc1cccc(N2CCNCC2)c1 [mCPP, m-chlorophenylpiperazine]
- behavioural satiety sequence [6]: accelerate the appearance of the behavioural satiety sequence
- food intake in rats [6]: reduce food intake
- food intake in female volunteers ([7]; single dose): decreased food intake
- appetite and body weight of obese male and female subjects ([7]; subchronic treatment for a 14 day period): decreased the appetite and body weight

SMILES: COCCCCOc1ccc2c(c1)c(C[C@H](C)N)c1n2CCC1.Cl
- melting point: 107 °C
